# Reference: PubChem BioAssay (NCI)
#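 Abbreviation: GI50, concentration required for 50% inhibition of growth. TGI marks complete inhibition of growth.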
# Tests used:
# Experiment in all cases: NCI anticancer screen, dose series, 384-well format
# HCC-2998 colon = system: HCC-2998 colon
# HOP-62 NSCLC = system: HOP-62 NSCLC
# SF-268 CNS = system: SF-268 CNS
# HL-60(TB) leukemia = system: HL-60(TB) leukemia
# SW-620 colon = system: SW-620 colon
# HT29 colon = system: HT29 colon
# COLO 205 colon = system: COLO 205 colon
# UO-31 renal = system: UO-31 renal
# HCT-15 colon = system: HCT-15 colon
# SK-MEL-5 melanoma = system: SK-MEL-5 melanoma
# MCF7 breast = system: MCF7 breast
# SK-OV-3 ovarian = system: SK-OV-3 ovarian
# OVCAR-3 ovarian = system: OVCAR-3 ovarian
# MALME-3M melanoma = system: MALME-3M melanoma
# CAKI-1 renal = system: CAKI-1 renal
# U251 glioblastoma = system: U251 glioblastoma
# EKVX NSCLC = system: EKVX NSCLC
# DU-145 prostate = system: DU-145 prostate
# IGROV1 ovarian = system: IGROV1 ovarian
# RPMI-8226 leukemia = system: RPMI-8226 leukemia
# NCI-H460 NSCLC = system: NCI-H460 NSCLC
# NCI/ADR-RES ovarian = system: NCI/ADR-RES ovarian
# SN12C renal = system: SN12C renal
# HS 578T breast = system: HS 578T breast
# NCI-H23 lung = system: NCI-H23 lung
# NCI-H322M lung = system: NCI-H322M lung
# SK-MEL-28 melanoma = system: SK-MEL-28 melanoma
# MDA-MB-231 breast = system: MDA-MB-231 breast
# SF-539 CNS = system: SF-539 CNS
# TK-10 renal = system: TK-10 renal
# MDA-MB-435 melanoma = system: MDA-MB-435 melanoma
# HCT-116 colon = system: HCT-116 colon
# OVCAR-8 ovarian = system: OVCAR-8 ovarian
# SF-295 CNS = system: SF-295 CNS
# 786-0 renal = system: 786-0 renal
# SNB-19 CNS = system: SNB-19 CNS
# MDA-MB-468 breast = system: MDA-MB-468 breast
# OVCAR-4 ovarian = system: OVCAR-4 ovarian
# MOLT-4 leukemia = system: MOLT-4 leukemia
# ACHN renal = system: ACHN renal
# A498 renal = system: A498 renal
# T-47D breast = system: T-47D breast
# UACC-257 melanoma = system: UACC-257 melanoma
# RXF 393 renal = system: RXF 393 renal
# UACC-62 melanoma = system: UACC-62 melanoma
# A549 NSCLC = system: A549 NSCLC
# SNB-75 CNS = system: SNB-75 CNS
# LOX IMVI melanoma = system: LOX IMVI melanoma
# NCI-H522 lung = system: NCI-H522 lung
# BT-549 breast = system: BT-549 breast
# NCI-H226 lung = system: NCI-H226 lung
# OVCAR-5 ovarian = system: OVCAR-5 ovarian
# HOP-92 NSCLC = system: HOP-92 NSCLC
# SR leukemia = system: SR leukemia
# M14 melanoma = system: M14 melanoma
# PC-3 prostate = system: PC-3 prostate
# KM12 colon = system: KM12 colon
compound,measurement,setting,value
C[C@]12CC[C@@H]3c4ccc(OC(=O)N(CCCl)CCCl)cc4CC[C@H]3[C@@H]1CC[C@@H]2OP(=O)(O)O,GI50,HCC-2998 colon,> 100 µM
same,TGI,HCC-2998 colon,> 100 µM
same,GI50,HOP-62 NSCLC,> 100 µM
same,TGI,HOP-62 NSCLC,> 100 µM
same,GI50,SF-268 CNS,> 100 µM
same,TGI,SF-268 CNS,> 100 µM
same,GI50,HL-60(TB) leukemia,> 100 µM
same,TGI,HL-60(TB) leukemia,> 100 µM
same,GI50,SW-620 colon,> 100 µM
same,TGI,SW-620 colon,> 100 µM
same,GI50,HT29 colon,> 100 µM
same,TGI,HT29 colon,> 100 µM
same,GI50,COLO 205 colon,> 100 µM
same,TGI,COLO 205 colon,> 100 µM
same,GI50,UO-31 renal,> 100 µM
same,TGI,UO-31 renal,> 100 µM
same,GI50,HCT-15 colon,> 100 µM
same,TGI,HCT-15 colon,> 100 µM
same,GI50,SK-MEL-5 melanoma,> 100 µM
same,TGI,SK-MEL-5 melanoma,> 100 µM
same,GI50,MCF7 breast,> 100 µM
same,TGI,MCF7 breast,> 100 µM
same,GI50,SK-OV-3 ovarian,> 100 µM
same,TGI,SK-OV-3 ovarian,> 100 µM
same,GI50,OVCAR-3 ovarian,> 100 µM
same,TGI,OVCAR-3 ovarian,> 100 µM
same,GI50,MALME-3M melanoma,> 100 µM
same,TGI,MALME-3M melanoma,> 100 µM
same,GI50,CAKI-1 renal,> 100 µM
same,TGI,CAKI-1 renal,> 100 µM
same,GI50,U251 glioblastoma,> 100 µM
same,TGI,U251 glioblastoma,> 100 µM
same,GI50,EKVX NSCLC,> 100 µM
same,TGI,EKVX NSCLC,> 100 µM
same,GI50,DU-145 prostate,> 100 µM
same,TGI,DU-145 prostate,> 100 µM
same,GI50,IGROV1 ovarian,> 100 µM
same,TGI,IGROV1 ovarian,> 100 µM
same,GI50,RPMI-8226 leukemia,> 100 µM
same,TGI,RPMI-8226 leukemia,> 100 µM
same,GI50,NCI-H460 NSCLC,> 100 µM
same,TGI,NCI-H460 NSCLC,> 100 µM
same,GI50,NCI/ADR-RES ovarian,> 100 µM
same,TGI,NCI/ADR-RES ovarian,> 100 µM
same,GI50,SN12C renal,> 100 µM
same,TGI,SN12C renal,> 100 µM
same,GI50,HS 578T breast,> 100 µM
same,TGI,HS 578T breast,> 100 µM
same,GI50,NCI-H23 lung,> 100 µM
same,TGI,NCI-H23 lung,> 100 µM
same,GI50,NCI-H322M lung,> 100 µM
same,TGI,NCI-H322M lung,> 100 µM
same,GI50,SK-MEL-28 melanoma,> 100 µM
same,TGI,SK-MEL-28 melanoma,> 100 µM
same,GI50,MDA-MB-231 breast,> 100 µM
same,TGI,MDA-MB-231 breast,> 100 µM
same,GI50,SF-539 CNS,> 100 µM
same,TGI,SF-539 CNS,> 100 µM
same,GI50,TK-10 renal,> 100 µM
same,TGI,TK-10 renal,> 100 µM
same,GI50,MDA-MB-435 melanoma,41.2 µM
same,TGI,MDA-MB-435 melanoma,> 100 µM
same,GI50,HCT-116 colon,> 100 µM
same,TGI,HCT-116 colon,> 100 µM
same,GI50,OVCAR-8 ovarian,> 100 µM
same,TGI,OVCAR-8 ovarian,> 100 µM
same,GI50,SF-295 CNS,> 100 µM
same,TGI,SF-295 CNS,> 100 µM
same,GI50,786-0 renal,> 100 µM
same,TGI,786-0 renal,> 100 µM
same,GI50,SNB-19 CNS,> 100 µM
same,TGI,SNB-19 CNS,> 100 µM
same,GI50,MDA-MB-468 breast,> 100 µM
same,TGI,MDA-MB-468 breast,> 100 µM
same,GI50,OVCAR-4 ovarian,> 100 µM
same,TGI,OVCAR-4 ovarian,> 100 µM
same,GI50,MOLT-4 leukemia,> 100 µM
same,TGI,MOLT-4 leukemia,> 100 µM
same,GI50,ACHN renal,> 100 µM
same,TGI,ACHN renal,> 100 µM
same,GI50,A498 renal,> 100 µM
same,TGI,A498 renal,> 100 µM
same,GI50,T-47D breast,> 100 µM
same,TGI,T-47D breast,> 100 µM
same,GI50,UACC-257 melanoma,> 100 µM
same,TGI,UACC-257 melanoma,> 100 µM
same,GI50,RXF 393 renal,47.7 µM
same,TGI,RXF 393 renal,> 100 µM
same,GI50,UACC-62 melanoma,> 100 µM
same,TGI,UACC-62 melanoma,> 100 µM
same,GI50,A549 NSCLC,> 100 µM
same,TGI,A549 NSCLC,> 100 µM
same,GI50,SNB-75 CNS,> 100 µM
same,TGI,SNB-75 CNS,> 100 µM
same,GI50,LOX IMVI melanoma,> 100 µM
same,TGI,LOX IMVI melanoma,> 100 µM
same,GI50,NCI-H522 lung,> 100 µM
same,TGI,NCI-H522 lung,> 100 µM
same,GI50,BT-549 breast,25 µM
same,TGI,BT-549 breast,> 100 µM
same,GI50,NCI-H226 lung,> 100 µM
same,TGI,NCI-H226 lung,> 100 µM
same,GI50,OVCAR-5 ovarian,> 100 µM
same,TGI,OVCAR-5 ovarian,> 100 µM
same,GI50,HOP-92 NSCLC,> 100 µM
same,TGI,HOP-92 NSCLC,> 100 µM
same,GI50,SR leukemia,> 100 µM
same,TGI,SR leukemia,> 100 µM
same,GI50,M14 melanoma,> 100 µM
same,TGI,M14 melanoma,> 100 µM
same,GI50,PC-3 prostate,> 100 µM
same,TGI,PC-3 prostate,> 100 µM
same,GI50,KM12 colon,> 100 µM
same,TGI,KM12 colon,> 100 µM
